Results as given in ChEMBL document CHEMBL4811304, “Design, synthesis and biological evaluation of dual mTOR/HDAC6 inhibitors in MDA-MB-231 cells” (Bioorg Med Chem Lett, 2021).

Each molecule was assayed against T1, Protein deacetylase HDAC6 (Homo sapiens, UniProt Q9UBN7) (assay: Inhibition of HDAC6 (unknown origin)).
T1 sequence (Q9UBN7 whole entry): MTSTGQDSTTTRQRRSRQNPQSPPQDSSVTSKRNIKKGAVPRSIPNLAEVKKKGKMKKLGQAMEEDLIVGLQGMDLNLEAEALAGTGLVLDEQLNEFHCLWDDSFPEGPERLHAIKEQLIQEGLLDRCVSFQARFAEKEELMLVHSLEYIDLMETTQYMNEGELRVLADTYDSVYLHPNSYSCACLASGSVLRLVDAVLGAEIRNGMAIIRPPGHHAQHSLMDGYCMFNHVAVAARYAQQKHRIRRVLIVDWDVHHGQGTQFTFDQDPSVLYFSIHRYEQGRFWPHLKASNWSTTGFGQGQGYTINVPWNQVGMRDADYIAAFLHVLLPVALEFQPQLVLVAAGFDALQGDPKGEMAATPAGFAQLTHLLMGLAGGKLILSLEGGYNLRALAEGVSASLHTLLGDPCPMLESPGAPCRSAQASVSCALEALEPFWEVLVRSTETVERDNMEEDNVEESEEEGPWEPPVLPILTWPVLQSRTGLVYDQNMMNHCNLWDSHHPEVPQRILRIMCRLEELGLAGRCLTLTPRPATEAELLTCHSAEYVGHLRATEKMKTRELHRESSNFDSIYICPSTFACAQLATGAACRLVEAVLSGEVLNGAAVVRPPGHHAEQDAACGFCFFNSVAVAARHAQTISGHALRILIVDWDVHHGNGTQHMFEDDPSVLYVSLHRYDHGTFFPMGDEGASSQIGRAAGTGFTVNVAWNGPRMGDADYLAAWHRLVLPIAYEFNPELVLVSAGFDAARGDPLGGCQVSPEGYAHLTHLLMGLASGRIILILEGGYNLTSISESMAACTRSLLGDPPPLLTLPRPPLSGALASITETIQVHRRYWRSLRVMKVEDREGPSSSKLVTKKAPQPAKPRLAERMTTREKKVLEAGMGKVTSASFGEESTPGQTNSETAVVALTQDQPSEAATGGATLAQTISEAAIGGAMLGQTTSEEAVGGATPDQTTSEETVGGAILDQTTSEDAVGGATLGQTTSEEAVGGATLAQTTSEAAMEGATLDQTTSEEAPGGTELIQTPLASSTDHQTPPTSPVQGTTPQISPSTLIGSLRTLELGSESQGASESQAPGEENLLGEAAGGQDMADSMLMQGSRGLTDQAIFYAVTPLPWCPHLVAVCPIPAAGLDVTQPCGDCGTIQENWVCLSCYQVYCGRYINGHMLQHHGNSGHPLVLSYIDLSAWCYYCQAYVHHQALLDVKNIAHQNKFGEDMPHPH

Cn1c(=O)n(-c2ccc(C(C)(C)C#N)cc2)c2c3cc(-c4cnc5ccccc5c4)ccc3ncc21 [DACTOLISIB] showed an IC50 of 2 nM.

The molecules below were run against T2, Serine/threonine-protein kinase mTOR (Homo sapiens, UniProt P42345) (assay: Inhibition of mTOR (unknown origin) at 0.5 uM relative to control).

In order of falling inhibition:
1. Cn1c(=O)n(-c2ccc(C(C)(C)C#N)cc2)c2c3cc(-c4cnc5ccccc5c4)ccc3ncc21 [DACTOLISIB]  95.4%
2. C[C@H]1COCCN1c1nc(-c2ccc(C(=O)NO)cc2)nc2cc(Cl)ccc12  82.3%
3. C[C@@H]1COCCN1c1nc(-c2ccc(C(=O)NO)cc2)nc2cc(Cl)ccc12  78.8%
4. CN1CCN(c2nc(-c3ccc(C(=O)NO)cc3)nc3ccccc23)CC1  76.8%
5. O=C(NO)c1ccc(-c2nc(N3CCOCC3)c3ccc(Cl)cc3n2)cc1  75.5%
6. C[C@@H]1COCCN1c1nc(-c2ccc(C(=O)NO)cc2)nc2ccccc12  68.5%
7. COc1cc(OC)c2c(N3CCN(C)CC3)nc(-c3ccc(C(=O)NO)cc3)nc2c1  67.6%
8. C[C@H]1COCCN1c1nc(-c2ccc(C(=O)NO)cc2)nc2ccccc12  67.3%
9. O=C(NO)c1ccc(-c2nc(N3CCOCC3)c3ccccc3n2)cc1  60.1%
10. COc1cc(OC)c2c(N3CCOC[C@H]3C)nc(-c3ccc(C(=O)NO)cc3)nc2c1  57.2%
11. COc1cc(OC)c2c(N3CCOC[C@@H]3C)nc(-c3ccc(C(=O)NO)cc3)nc2c1  55.4%
12. COc1cc(OC)c2c(N3CCOCC3)nc(-c3ccc(C(=O)NO)cc3)nc2c1  48.9%
13. O=C(NO)c1ccc(-c2nc(N3CCSCC3)c3ccc(Cl)cc3n2)cc1  44.9%
14. O=C(NO)c1ccc(-c2nc(N3CCSCC3)c3ccccc3n2)cc1  44.7%
15. O=C(NO)c1ccc(-c2nc(N3CCS(=O)(=O)CC3)c3ccc(Cl)cc3n2)cc1  39.7%
16. O=C(NO)c1ccc(-c2nc(N3CCS(=O)(=O)CC3)c3ccccc3n2)cc1  37.4%
17. COc1cc(OC)c2c(N3CCS(=O)(=O)CC3)nc(-c3ccc(C(=O)NO)cc3)nc2c1  34.8%
18. COc1cc(OC)c2c(N3CCSCC3)nc(-c3ccc(C(=O)NO)cc3)nc2c1  33.8%
19. O=C(NO)c1ccc(-c2nc(N3CCCCC3)c3ccccc3n2)cc1  23.6%
20. O=C(NO)c1ccc(-c2nc(N3CCC(F)(F)CC3)c3ccccc3n2)cc1  18.4%
21. O=C(NO)c1ccc(-c2nc(N3CCCC3)c3ccc(Cl)cc3n2)cc1  18.3%
22. O=C(NO)c1ccc(-c2nc(N3CCC(F)(F)CC3)c3ccc(Cl)cc3n2)cc1  18.2%
23. O=C(NO)c1ccc(-c2nc(N3CCCCC3)c3ccc(Cl)cc3n2)cc1  14.9%
24. COc1cc(OC)c2c(N3CCCCC3)nc(-c3ccc(C(=O)NO)cc3)nc2c1  11.5%
25. O=C(NO)c1ccc(-c2nc(N3CCCC3)c3ccccc3n2)cc1  11.3%
26. COc1cc(OC)c2c(N3CCC(F)(F)CC3)nc(-c3ccc(C(=O)NO)cc3)nc2c1  10.6%
27. COc1cc(OC)c2c(N3CCCC3)nc(-c3ccc(C(=O)NO)cc3)nc2c1  9.7%

The molecules below were run against T2, Serine/threonine-protein kinase mTOR (assay: Inhibition of mTOR (unknown origin)).

Work on CCNC(=O)Nc1ccc(-c2nc3c(c(N4CCOC[C@@H]4C)n2)CCN(C2COC2)C3)cc1 [RG-7603] yielded an IC50 of 3.8 nM.
